In patent US9179682B2, “Biocides and apparatus” (A.Y. Laboratories Ltd., priority 2004, dated 2015):

Assay: Reduction of Na2S: total sulfur and sulfate after addition of oxidizer, Series 7
Details: 100 ml DI water with ~5 mg sodium sulfide; several days after addition of oxidizer
Protocol: A series of containers each containing 100 ml DI water in which ˜5 mg of sodium sulfide was dissolved were prepared. To each container an appropriate amount of an oxidizer or a control solution was added as follows: • a. […] Monochloroamine (MCA) formed from ammonium sulfate and NaOCl (1:1 molar ratio, each component pre-diluted before mixing, 15 ppm as total chlorine). • d.
Samples were analyzed for total sulfur and for sulfate several days after addition of oxidizer.

Q: Which “% S remaining” value does the source give for `O=N[O-].[Na+]` [Test A, NaNO2] here?
A: Its value is 100%.
